Patent US20230011869A1 (Hoffmann-La Roche Inc., priority 2018, published 2023)
Counter-ions that a name gives are not always drawn.

Tested on: Acinetobacter baumannii ATCC17978
Assay: Antimicrobial susceptibility testing: 90% growth inhibitory concentration (IC90) determination, Iso-Sensitest broth
Assay type: cell-based
Settings: 90% growth inhibitory concentration, Acinetobacter baumannii ATCC17978, Iso-Sensitest broth, OD 600 nm over 16 h; read-out: ATCC17978 IC90
Summary of the method: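 A. baumannii ATCC17978 grown in Iso-Sensitest broth across 10 compound concentrations at 35±2 °C.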

Row | Structure (SMILES) | IC90
1 | COc1ccc(-c2cnc3c(Nc4ccc(C(=O)N5CCN(CCO)CC5)c(C)c4)nccn23)cc1 [Example 371, [4-(2-hydroxyethyl)piperazin-1-yl]-[4-[[3-(4-methoxyphenyl)imidazo[1,2-a]pyrazin-8-yl]amino]-2-methylphenyl]methanone] | 1.2 µM
2 | COc1ccc(-c2cnc3c(Nc4ccc(C(=O)N5CCCN(C)CC5)c(C)c4)nccn23)cc1 [Example 383, [4-[[3-(4-methoxyphenyl)imidazo[1,2-a]pyrazin-8-yl]amino]-2-methylphenyl]-(4-methyl-1,4-diazepan-1-yl)methanone] | 4.3 µM
3 | COc1ccc(-c2cnc3c(Nc4ccc(C(=O)N5CCC(N(C)C)C5)c(C)c4)nccn23)cc1 (stereo not shown) [Example 384, [3-(dimethylamino)pyrrolidin-1-yl]-[4-[[3-(4-methoxyphenyl)imidazo[1,2-a]pyrazin-8-yl]amino]-2-methylphenyl]methanone] | 5.2 µM
4 | Cc1cc(Nc2nccn3c(-c4ccc(OCC#CCO)c(F)c4)cnc23)ccc1C(=O)N1CCC(CN)CC1 [Example 387, [4-(aminomethyl)piperidin-1-yl]-[4-[[3-[3-fluoro-4-(4-hydroxybut-2-ynoxy)phenyl]imidazo[1,2-a]pyrazin-8-yl]amino]-2-methylphenyl]methanone; for-mic acid] | 0.24 µM
5 | COc1ccc(-c2cnc3c(Nc4ccc(C(=O)N5CCC(C(=O)NC(CO)(CO)CO)CC5)c(C)c4)nccn23)cc1F [Example 388, N-[1,3-dihydroxy-2-(hydroxymethyl)propan-2-yl]-1-[4-[[3-(3-fluoro-4-methoxyphenyl)imidazo[1,2-a]pyrazin-8-yl]amino]-2-methylbenzoyl]piperidine-4-carboxamide] | 0.26 µM
6 | COc1ccc(-c2cnc3c(Nc4ccc(C(=O)N5CCN(S(N)(=O)=O)CC5)c(C)c4)nccn23)cc1F [Example 389, 4-[4-[[3-(3-fluoro-4-methoxyphenyl)imidazo[1,2-a]pyrazin-8-yl]amino]-2-methylbenzoyl]piperazine-1-sulfonamide] | 0.31 µM
7 | COc1ccc(-c2cnc3c(Nc4ccc(C(=O)N5CCC(N6CCCC(CO)C6)CC5)c(C)c4)nccn23)cc1F (stereo not shown) [Example 390, [4-[[3-(3-fluoro-4-methoxyphenyl)imidazo[1,2-a]pyrazin-8-yl]amino]-2-methylphenyl]-[4-[3-(hydroxymethyl)piperidin-1-1-yl)piperidin-1-yl]methanone] | 0.32 µM

Same assay, conditions: Acinetobacter baumannii, ATCC17978, 16 h, read-out: ATCC17978 IC90, 90% growth inhibitory concentration, Acinetobacter baumannii ATCC17978, Iso-Sensitest broth, OD 600 nm over 16 h

Row | Structure (SMILES) | IC90
8 | Cc1cc(Nc2nccn3c(-c4ccc(OC(F)F)cc4)cnc23)ccc1C(=O)N1CCC(N2CCOCC2)CC1 [Example 366, [4-[[3-[4-(difluoromethxoy)phenyl]imi-dazo[1,2-a]pyrazin-8-yl]amino]-2-methylphenyl]-(4-morpholin-4-ylpiperidin-1-yl)methanone] | 0.64 µM
9 | CCN1CCN(C2CCN(C(=O)c3ccc(Nc4nccn5c(-c6ccc(OC(F)F)cc6)cnc45)cc3C)CC2)CC1 [Example 367, [4-[[3-[4-(difluoromethoxy)phenyl]imi-dazo[1,2-a]pyrazin-8-yl]amino]-2-methylphenyl]-[4-(4-ethylpiperazin-1-yl)piperidin-1-yl]methanone] | 0.69 µM
10 | Cc1cc(Nc2nccn3c(-c4ccc(OC(F)F)cc4)cnc23)ccc1C(=O)N1CCCC(N)C1 (stereo not shown) [Example 368, (3-aminopiperidin-1-yl)-[4-[[3-[4-(difluoromethoxy)phenyl]imi-dazo[1,2-a]pyrazin-8-yl]amino]-2-methylphenyl]methanone; hy-drochloride] | 0.81 µM
11 | CCN(CC)C(=O)N1CCN(C(=O)c2ccc(Nc3nccn4c(-c5ccc(OC(F)F)cc5)cnc34)cc2C)CC1 [Example 369, 4-[4-[[3-[4-(difluoromethoxy)phenyl]imi-dazo[1,2-a]pyrazin-8-yl]amino]-2-methylbenzoyl]-N,N-diethylpiperazine-1-carboxamide] | 0.89 µM
12 | Cc1cc(Nc2nccn3c(-c4ccc(OC(F)F)cc4)cnc23)ccc1C(=O)N1CCC2(CCOCC2)C1 [Example 370, [4-[[3-[4-(difluoromethoxy)phenyl]imi-dazo[1,2-a]pyrazin-8-yl]amino]-2-methylphenyl]-(8-oxa-2-azaspiro[4.5]decan-2-yl)methanone] | 1.1 µM
13 | Cc1cc(Nc2nccn3c(-c4ccc(OC(F)F)cc4)cnc23)ccc1C(=O)N1CCN(CC(=O)N(C)C)CC1 [Example 372, 2-[4-[4-[[3-[4-(difluoromethoxy)phenyl]imi-dazo[1,2-a]pyrazin-8-yl]amino]-2-methylbenzoyl]piperazin-1-yl]-N,N-dimethylacetamide] | 1.2 µM
14 | CNC1CCN(C(=O)c2ccc(Nc3nccn4c(-c5ccc(OC(F)F)cc5)cnc34)cc2C)CC1 [Example 374, [4-[[3-[4-(difluoromethoxy)phenyl]imi-dazo[1,2-a]pyrazin-8-yl]amino]-2-methylphenyl]-[4-(methylamino)piperidin-1-yl]methanone; hydrochloride] | 1.7 µM
15 | Cc1cc(Nc2nccn3c(-c4ccc(OC(F)F)cc4)cnc23)ccc1C(=O)N1CCC(C(N)=O)(N2CCN(C)CC2)CC1 [Example 375, 1-[4-[[3-[4-(difluoromethoxy)phenyl]imi-dazo[1,2-a]pyrazin-8-yl]amino]-2-methylbenzoyl]-4-(4-methylpiperazin-1-yl)piperidine-4-carboxamide] | 2 µM
16 | Cc1cc(Nc2nccn3c(-c4ccc(OC(F)F)cc4)cnc23)ccc1C(=O)N1CCC2(CCCNC2)CC1 [Example 376, 2,9-diazaspiro[5.5]undecan-9-yl-[4-[[3-[4-(difluromethoxy)phenyl]imi-dazo[1,2-a]pyrazin-8-yl]amino]-2-methylphenyl]methanone; hy-drochloride] | 2 µM
17 | Cc1cc(Nc2nccn3c(-c4ccc(OC(F)F)cc4)cnc23)ccc1C(=O)N1CCN(CC(=O)N2CCCC2)CC1 [Example 377, 2-[4-[4-[[3-[4-(difluoromethoxy)phenyl]imi-dazo[1,2-a]pyrazin-8-yl]amino]-2-methylbenzoyl]piperazin-1-yl]-1-pyrrolidin-1-ylethanone] | 2.3 µM
18 | Cc1cc(Nc2nccn3c(-c4ccc(OC(F)F)cc4)cnc23)ccc1C(=O)N1CCOCC1CN (stereo not shown) [Example 378, [3-(aminomethyl)morpholin-4-yl]-[4-[[3-[4-(difluoromethoxy)phenyl]imi-dazo[1,2-a]pyrazin-8-yl]amino]-2-methylphenyl]methanone; hy-drochloride] | 2.5 µM
19 | Cc1cc(Nc2nccn3c(-c4ccc(OC(F)F)cc4)cnc23)ccc1C(=O)N1CCOC2(CCNCC2)C1 [Example 379, [4-[[3-[4-(difluoromethoxy)phenyl]imi-dazo[1,2-a]pyrazin-8-yl]amino]-2-methylphenyl]-(1-oxa-4,9-diazaspiro[5.5]undecan-4-yl)methanone; hydrochloride] | 2.8 µM
20 | Cc1cnn(CC2CCN(C(=O)c3ccc(Nc4nccn5c(-c6ccc(OC(F)F)cc6)cnc45)cc3C)CC2)c1 [Example 380, [4-[[3-[4-(difluoromethoxy)phenyl]imi-dazo[1,2-a]pyrazin-8-yl]amino]-2-methylphenyl]-[4-[(4-methylpyrazol-1-yl)methyl]piperidin-1-yl]methanone] | 2.8 µM
21 | Cc1cc(Nc2nccn3c(-c4ccc(OC(F)F)cc4)cnc23)ccc1C(=O)N1CCC2(CCNCC2)C1 [Example 381, 2,8-diazaspiro[4.5]decan-2-yl-[4-[[3-[4-(difluoromethoxy)phenyl]imi-dazo[1,2-a]pyrazin-8-yl]amino]-2-methylphenyl]methanone; hy-drochloride] | 2.9 µM
22 | Cc1cc(Nc2nccn3c(-c4ccc(OC(F)F)cc4)cnc23)ccc1C(=O)N1CCC(CC(=O)O)CC1 [Example 382, 2-[1-[4-[[3-[4-(difluoromethoxy)phenyl]imi-dazo[1,2-a]pyrazin-8-yl]amino]-2-methylbenzoyl]piperidin-4-yl]acetic acid] | 3.6 µM
23 | CN1CCN(C(=O)c2ccc(Nc3nccn4c(-c5ccc(OC(F)F)cc5)cnc34)cc2C(F)(F)F)CC1 [Example 385, [4-[[3-[4-(difluoromethoxy)phenyl]imi-dazo[1,2-a]pyrazin-8-yl]amino]-2-(trifluoromethyl)phenyl]-(4-methylpiperazin-1-yl)methanone] | 7.4 µM
24 | CCc1cc(Nc2nccn3c(-c4ccc(OC)c(F)c4)cnc23)ccc1C(=O)N1CCC(CN)CC1 [Example 386, [4-(aminomethyl)piperidin-1-yl]-[2-ethyl-4-[[3-(3-fluoro-4-methoxyphenyl)imidazo[1,2-a]pyrazin-8-yl]amino]phenyl]methanone; formic acid] | 0.18 µM
25 | CNCCN(C)C(=O)C1CCN(C(=O)c2ccc(Nc3nccn4c(-c5ccc(OC)c(F)c5)cnc34)cc2C)CC1 [Example 391, 1-[4-[[3-(3-fluoro-4-methoxyphenyl)imidazo[1,2-a]pyrazin-8-yl]amino]-2-methylbenzoyl]-N-methyl-N-[2-(methylamino)ethyl]piperidine-4-carboxamide; hydrochloride] | 0.34 µM
26 | COc1ccc(-c2cnc3c(Nc4ccc(C(=O)N5CCC(C(=O)N6CC[C@@H](N)[C@@H](O)C6)CC5)c(C)c4)nccn23)cc1F [Example 392, [4-[(3S,4R)-4-amino-3-hydroxypiperidine-1-carbonyl]piperidin-1-yl]-[4-[[3-(3-fluoro-4-methoxyphenyl)imidazo[1,2-a]pyrazin-8-yl]amino]-2-methylphenyl]methanone; 2,2,2-trifluoroacetic acid] | 0.34 µM
27 | COc1ccc(-c2cnc3c(Nc4ccc(C(=O)N5CCC(C(=O)NCCN)CC5)c(C)c4)nccn23)cc1F [Example 393, N-(2-aminoethyl)-1-[4-[[3-(3-fluoro-4-methoxyphenyl)imidazo[1,2-a]pyrazin-8-yl]amino]-2-methylbenzoyl]piperidine-4-carboxamide; hydrochloride] | 0.34 µM
28 | COc1ccc(-c2cnc3c(Nc4ccc(C(=O)N5CCC(CN)CC5)c(C(F)(F)F)c4)nccn23)cc1F [Example 394, [4-(aminomethyl)piperidin-1-yl]-[4-[[3-(3-fluoro-4-methoxyphenyl)imidazo[1,2-a]pyrazin-8-yl]amino]-2-(trifluoromethyl)phenyl]meth-anone; formic acid] | 0.34 µM
